# Assay results from ChEMBL document CHEMBL4680119, “Battle tactics against MMP-9; discovery of novel non-hydroxamate MMP-9 inhibitors endowed with PI3K/AKT signaling attenuation and caspase 3/7 activation via Ugi bis-amide synthesis” (Eur J Med Chem, 2020).
# Active and inactive are the calls of the source. The calls are words filed in the database; no cut-off is given here.
# Tests used:
# MCF7 [1] = assay: Induction of apoptosis in human MCF7 cells assessed as increase in caspase-3/7 activation by flow cytometric analysis; assay type: functional
# HepG2 [2] = assay: Induction of apoptosis in human HepG2 cells assessed as early apoptosis by annexinV/propidium iodide staining based by flow cytometry (reference value: 0.78+/- 0.09%); assay type: functional
# HepG2 [3] = assay: Induction of cell morphological changes in human HepG2 cells assessed as loss in cell shape by microscopic analysis; assay type: functional, cell-based
# HepG2 [4] = assay: Induction of apoptosis in human HepG2 cells assessed as late apoptosis by annexinV/propidium iodide staining based by flow cytometry (reference value: 0.1+/- 0.001%); assay type: functional
# HepG2 [5] = assay: Induction of apoptosis in human HepG2 cells assessed as increase in caspase-3/7 activation by flow cytometric analysis; assay type: functional
# HepG2 [6] = assay: Induction of apoptosis in human HepG2 cells assessed as total apoptosis by annexin/propidium iodide staining based by flow cytometry (reference value: 0.169+/- 0.02%); assay type: functional
# MCF7 [7] = assay: Induction of apoptosis in human MCF-7 cells assessed as early apoptosis by annexinV/propidium iodide staining based by flow cytometry (reference value: 0.47+/- 0.01%); assay type: functional
# [8] = Induction of apoptosis in […] cells assessed as early apoptosis by annexinV/propidium iodide staining based by flow cytometry (reference value: 0.02+/- 0.01%); assay type: functional, Mus musculus
# MCF7 [9] = assay: Induction of apoptosis in human MCF-7 cells assessed as total apoptosis by annexin V/propidium iodide staining based by flow cytometry (reference value: 0.48+/- 0.01%); assay type: functional
# MCF7 [10] = assay: Induction of cell morphological changes in human MCF7 cells assessed as loss in cell shape by microscopic analysis; assay type: functional, cell-based
# NFS-60 [11] = assay: Induction of cell morphological changes in […] cells assessed as loss in cell shape by microscopic analysis; assay type: functional, cell-based; details: Mus musculus
# [12] = Anticancer activity against […] cells assessed as reduction in cell viability by MTT assay; assay type: functional, cell-based; details: Mus musculus
# [13] = Induction of apoptosis in […] cells assessed as late apoptosis by annexinV/propidium iodide staining based by flow cytometry (reference value: 0.015+/- 0.01%); assay type: functional, Mus musculus
# [14] = Induction of apoptosis in […] cells assessed as total apoptosis by annexinV/propidium iodide staining based by flow cytometry (reference value: 0.495+/- 0.01%); assay type: functional, Mus musculus
# WI-38 = assay: Cytotoxicity against human WI-38 cells assessed as reduction in cell viability by MTT assay; assay type: cell-based; details: for EC100: human, wi-38; for IC50: Homo sapiens, WI-38
# MCF7 [15] = assay: Induction of apoptosis in human MCF-7 cells assessed as late apoptosis by annexinV/propidium iodide staining based by flow cytometry (reference value: 0.01+/- 0.001%); assay type: functional
# [16] = Induction of apoptosis in […] cells assessed as increase in caspase-3/7 activation by flow cytometric analysis; assay type: functional, Mus musculus
# [17] = target: 72 kDa type IV collagenase (Homo sapiens, UniProt P08253); assay: Inhibition of MMP-2 (unknown origin) by colorimetric assay
# Chain of 72 kDa type IV collagenase (P08253 whole entry): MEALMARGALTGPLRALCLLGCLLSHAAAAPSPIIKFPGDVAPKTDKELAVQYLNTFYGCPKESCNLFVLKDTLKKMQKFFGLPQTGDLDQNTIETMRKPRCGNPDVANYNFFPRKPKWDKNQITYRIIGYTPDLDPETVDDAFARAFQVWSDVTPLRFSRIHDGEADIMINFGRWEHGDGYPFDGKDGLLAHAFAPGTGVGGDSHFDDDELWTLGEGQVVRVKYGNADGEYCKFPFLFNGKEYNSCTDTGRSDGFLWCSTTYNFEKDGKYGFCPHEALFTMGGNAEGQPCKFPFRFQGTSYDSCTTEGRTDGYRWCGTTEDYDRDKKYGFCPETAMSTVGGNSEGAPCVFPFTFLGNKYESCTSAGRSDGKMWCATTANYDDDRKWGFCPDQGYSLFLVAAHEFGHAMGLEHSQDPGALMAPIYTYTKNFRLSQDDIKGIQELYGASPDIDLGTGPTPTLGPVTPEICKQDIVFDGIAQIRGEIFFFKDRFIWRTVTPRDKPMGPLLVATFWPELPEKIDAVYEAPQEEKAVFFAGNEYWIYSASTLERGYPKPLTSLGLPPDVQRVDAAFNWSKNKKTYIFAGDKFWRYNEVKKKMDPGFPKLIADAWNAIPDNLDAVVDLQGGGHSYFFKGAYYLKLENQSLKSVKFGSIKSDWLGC
# Collagenase 3 = Collagenase 3 (Homo sapiens, UniProt P45452); assay: Inhibition of MMP-13 (unknown origin) by colorimetric assay
# [18] = target: Matrix metalloproteinase-9 (Homo sapiens, UniProt P14780); assay: Inhibition of MMP-9 (unknown origin) by colorimetric assay
# Chain of Matrix metalloproteinase-9 (P14780 whole entry): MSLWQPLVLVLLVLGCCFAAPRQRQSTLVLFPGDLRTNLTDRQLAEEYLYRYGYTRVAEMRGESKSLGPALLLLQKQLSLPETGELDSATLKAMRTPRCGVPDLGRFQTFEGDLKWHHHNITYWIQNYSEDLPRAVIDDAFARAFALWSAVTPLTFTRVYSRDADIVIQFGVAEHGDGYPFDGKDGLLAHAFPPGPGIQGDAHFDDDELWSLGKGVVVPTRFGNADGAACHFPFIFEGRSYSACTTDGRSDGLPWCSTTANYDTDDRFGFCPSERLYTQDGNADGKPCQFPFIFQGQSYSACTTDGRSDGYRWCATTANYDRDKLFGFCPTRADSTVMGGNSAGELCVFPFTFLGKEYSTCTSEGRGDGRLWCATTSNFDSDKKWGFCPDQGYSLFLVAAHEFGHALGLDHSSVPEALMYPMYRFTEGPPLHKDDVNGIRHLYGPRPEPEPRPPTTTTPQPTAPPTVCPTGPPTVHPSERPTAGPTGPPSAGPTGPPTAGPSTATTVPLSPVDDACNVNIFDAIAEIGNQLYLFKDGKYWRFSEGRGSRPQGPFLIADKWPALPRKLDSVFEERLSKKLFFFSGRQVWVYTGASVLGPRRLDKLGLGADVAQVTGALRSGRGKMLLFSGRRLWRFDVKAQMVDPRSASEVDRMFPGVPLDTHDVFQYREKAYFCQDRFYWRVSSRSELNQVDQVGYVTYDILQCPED
# MCF7 [19] = assay: cells; details: Homo sapiens
# Description: Anticancer activity against human MCF7 cells assessed as reduction in cell viability by MTT assay
# HepG2 [20] = assay: Anticancer activity against human HepG2 cells assessed as reduction in cell viability by MTT assay; assay type: functional, cell-based
# in vitro = details: human, WI38 cells and HepG2 cells
# Description: Selectivity index, ratio of IC50 for human WI38 cells to IC50 for human HepG2 cells
# HepG2 [21] = assay: Induction of apoptosis in human HepG2 cells assessed as cell shrinkage by microscopic analysis; assay type: functional, cell-based
# NFS-60 [22] = assay: Induction of apoptosis in […] cells assessed as cell shrinkage by microscopic analysis; assay type: functional, cell-based
# MCF7 [23] = assay: Induction of apoptosis in human MCF7 cells assessed as cell shrinkage by microscopic analysis; assay type: functional, cell-based
# Interstitial collagenase = target: T1, Interstitial collagenase (Homo sapiens, UniProt P03956); assay: Inhibition of MMP-1 (unknown origin) by colorimetric assay
# T1 sequence (P03956 whole entry): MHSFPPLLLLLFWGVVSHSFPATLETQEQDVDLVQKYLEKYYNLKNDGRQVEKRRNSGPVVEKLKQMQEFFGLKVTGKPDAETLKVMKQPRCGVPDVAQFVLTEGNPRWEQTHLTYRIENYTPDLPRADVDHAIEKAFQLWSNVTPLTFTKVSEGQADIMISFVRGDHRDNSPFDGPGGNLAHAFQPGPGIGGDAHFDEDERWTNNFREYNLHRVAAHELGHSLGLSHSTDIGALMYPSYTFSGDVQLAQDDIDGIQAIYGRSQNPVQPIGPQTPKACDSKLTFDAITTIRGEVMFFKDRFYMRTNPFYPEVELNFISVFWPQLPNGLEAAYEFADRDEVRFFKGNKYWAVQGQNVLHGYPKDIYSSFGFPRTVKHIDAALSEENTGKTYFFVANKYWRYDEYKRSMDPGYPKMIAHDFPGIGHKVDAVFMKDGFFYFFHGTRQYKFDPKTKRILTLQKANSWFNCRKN
# HepG2 [24] = assay: Inhibition of cell migration in human HepG2 cells incubated for 24 hrs by wound healing assay; assay type: functional
compound,measurement,setting,value
COc1cccc2c1C(=O)c1c(O)c3c(c(O)c1C2=O)C[C@@](O)(C(=O)CO)C[C@@H]3O[C@H]1C[C@H](N)[C@H](O)[C@H](C)O1 [DOXORUBICIN],Activity,MCF7 [1],42.94%
same,Activity,HepG2 [2],10.59%
same,Activity,HepG2 [3],Active
same,Activity,HepG2 [4],25.49%
same,Activity,HepG2 [5],48.09%
same,Activity,HepG2 [6],36.08%
same,Activity,MCF7 [7],13.53%
same,Activity,[8],11.379%
same,Activity,MCF7 [9],33.974%
same,Activity,MCF7 [10],Active
same,Activity,NFS-60 [11],Active
same,IC50,[12],13 nM
same,Activity,[13],23.215%
same,Activity,[14],34.595%
same,EC100,WI-38,12.1 nM
same,Activity,MCF7 [15],20.445%
same,Activity,[16],45.39%
COc1ccc(S(=O)(=O)N(CC(=O)NO)CC(C)C)cc1,IC50,[17],69 nM
same,IC50,Collagenase 3,131 nM
same,IC50,[18],78.5 nM
O=C(Nc1ccc([N+](=O)[O-])cc1)C(c1ccc([N+](=O)[O-])cc1)N(C(=O)c1ccccc1[N+](=O)[O-])c1ccccc1 (stereo not drawn),IC50,MCF7 [19],172 nM
same,IC50,HepG2 [20],159 nM
same,IC50,[12],162 nM
same,IC50,WI-38,210 nM
same,EC100,WI-38,158.3 nM
same,selectivity ratio,in vitro,1.32
Cc1ccc(N(C(=O)c2ccccc2[N+](=O)[O-])C(C(=O)Nc2ccc([N+](=O)[O-])cc2)c2ccccc2)cc1 (stereo not drawn),IC50,MCF7 [19],295 nM
same,IC50,HepG2 [20],153 nM
same,IC50,[12],182 nM
same,IC50,WI-38,499 nM
same,EC100,WI-38,305.4 nM
same,selectivity ratio,in vitro,3.25
CC(C)(C)OC(=O)NCC(=O)N(c1ccccc1)C(C(=O)Nc1ccc([N+](=O)[O-])cc1)c1ccccc1 (stereo not drawn),IC50,MCF7 [19],18 nM
same,IC50,HepG2 [20],35.9 nM
same,IC50,[12],31.9 nM
same,IC50,WI-38,42.9 nM
same,EC100,WI-38,18.2 nM
same,selectivity ratio,in vitro,1.2
O=C(Nc1ccc([N+](=O)[O-])cc1)C(c1ccccc1)N(C(=O)c1ccc([N+](=O)[O-])cc1)c1ccccc1 (stereo not drawn),IC50,MCF7 [19],26.9 nM
same,IC50,HepG2 [20],21.2 nM
same,IC50,[12],12.1 nM
same,IC50,WI-38,1200 nM
same,EC100,WI-38,469.8 nM
same,selectivity ratio,in vitro,56.7
O=C(Nc1ccc([N+](=O)[O-])cc1)C(c1ccc([N+](=O)[O-])cc1)N(C(=O)c1ccc(C(F)(F)F)cc1)c1ccccc1 (stereo not drawn),Activity,MCF7 [1],65.725%
same,Activity,HepG2 [2],26.46%
same,IC50,MCF7 [19],3.6 nM
same,Activity,HepG2 [3],Active
same,IC50,[17],139 nM
same,Activity,HepG2 [4],43.95%
same,Activity,HepG2 [5],70.745%
same,Activity,HepG2 [6],70.415%
same,Activity,HepG2 [21],Active
same,Activity,MCF7 [7],18.28%
same,Activity,NFS-60 [22],Active
same,Activity,MCF7 [23],Active
same,IC50,Interstitial collagenase,41 nM
same,IC50,HepG2 [20],2.2 nM
same,Activity,[8],39.15%
same,Activity,MCF7 [9],69.005%
same,Activity,MCF7 [10],Active
same,Activity,NFS-60 [11],Active
same,IC50,[12],3.61 nM
same,Activity,[13],28.33%
same,Activity,[14],67.485%
same,IC50,WI-38,374 nM
same,EC100,WI-38,107.4 nM
same,IC50,Collagenase 3,113 nM
same,Activity,MCF7 [15],50.72%
same,inhibition (INH),HepG2 [24],93.77%
same,IC50,[18],7.46 nM
same,Activity,[16],62.703%
same,selectivity ratio,in vitro,170
Cc1ccc(N(C(=O)c2ccc(Br)cc2)C(C(=O)Nc2ccc([N+](=O)[O-])cc2)c2ccccc2)cc1 (stereo not drawn),IC50,MCF7 [19],122 nM
same,IC50,HepG2 [20],111 nM
same,IC50,[12],121 nM
same,IC50,WI-38,260 nM
same,EC100,WI-38,36.1 nM
same,selectivity ratio,in vitro,2.34
O=C(Nc1ccc([N+](=O)[O-])cc1)C(c1ccccc1)N(C(=O)c1ccccc1I)c1ccccc1 (stereo not drawn),Activity,MCF7 [1],64.93%
same,Activity,HepG2 [2],14.02%
same,IC50,MCF7 [19],6.9 nM
same,Activity,HepG2 [3],Active
same,IC50,[17],266 nM
same,Activity,HepG2 [4],55.35%
same,Activity,HepG2 [5],70.708%
same,Activity,HepG2 [6],69.375%
same,Activity,HepG2 [21],Active
same,Activity,MCF7 [7],31.78%
same,Activity,NFS-60 [22],Active
same,Activity,MCF7 [23],Active
same,IC50,Interstitial collagenase,104 nM
same,IC50,HepG2 [20],3.1 nM
same,Activity,[8],9.99%
same,Activity,MCF7 [9],61.605%
same,Activity,MCF7 [10],Active
same,Activity,NFS-60 [11],Active
same,IC50,[12],5.5 nM
same,Activity,[13],58.08%
same,Activity,[14],68.07%
same,IC50,WI-38,35.1 nM
same,EC100,WI-38,10.3 nM
same,IC50,Collagenase 3,280 nM
same,Activity,MCF7 [15],29.82%
same,inhibition (INH),HepG2 [24],59.35%
same,IC50,[18],4.49 nM
same,Activity,[16],63.86%
same,selectivity ratio,in vitro,11.3
O=C(Nc1ccc([N+](=O)[O-])cc1)C(c1ccccc1[N+](=O)[O-])N(C(=O)C(F)(F)F)c1ccccc1 (stereo not drawn),IC50,MCF7 [19],14.8 nM
same,IC50,HepG2 [20],68.8 nM
same,IC50,[12],52.6 nM
same,IC50,WI-38,348 nM
same,EC100,WI-38,112.4 nM
same,selectivity ratio,in vitro,5.06
O=C(Nc1ccc([N+](=O)[O-])cc1)C(c1ccccc1)N(C(=O)CCC(=O)N(c1ccccc1)C(C(=O)Nc1ccc([N+](=O)[O-])cc1)c1ccccc1)c1ccccc1 (stereo not drawn),IC50,MCF7 [19],164 nM
same,IC50,HepG2 [20],125 nM
same,IC50,[12],137 nM
same,IC50,WI-38,195 nM
same,EC100,WI-38,141.4 nM
same,selectivity ratio,in vitro,1.56
O=C(Nc1ccc([N+](=O)[O-])cc1)C(c1ccccc1)N(Cc1ccccc1)C(=O)Cc1ccccc1 (stereo not drawn),Activity,MCF7 [1],51.928%
same,Activity,HepG2 [2],19.08%
same,IC50,MCF7 [19],6.6 nM
same,Activity,HepG2 [3],Active
same,IC50,[17],221 nM
same,Activity,HepG2 [4],36.1%
same,Activity,HepG2 [5],59.13%
same,Activity,HepG2 [6],55.19%
same,Activity,MCF7 [7],27.39%
same,IC50,Interstitial collagenase,47 nM
same,IC50,HepG2 [20],5.7 nM
same,Activity,[8],16.26%
same,Activity,MCF7 [9],49.19%
same,Activity,MCF7 [10],Active
same,Activity,NFS-60 [11],Active
same,IC50,[12],5.8 nM
same,Activity,[13],39.08%
same,Activity,[14],55.35%
same,IC50,WI-38,314 nM
same,EC100,WI-38,93.5 nM
same,IC50,Collagenase 3,295 nM
same,Activity,MCF7 [15],21.79%
same,inhibition (INH),HepG2 [24],71.25%
same,IC50,[18],5.56 nM
same,Activity,[16],53.86%
same,selectivity ratio,in vitro,55.1
Cc1ccc(N(C(=O)c2ccc(C(F)(F)F)cc2)C(C(=O)Nc2ccc([N+](=O)[O-])cc2)c2ccccc2)cc1 (stereo not drawn),IC50,MCF7 [19],8 nM
same,IC50,HepG2 [20],9.4 nM
same,IC50,[12],10.3 nM
same,IC50,WI-38,28.6 nM
same,EC100,WI-38,14.9 nM
same,selectivity ratio,in vitro,3.04
O=C(Nc1ccc([N+](=O)[O-])cc1)C(c1ccccc1)N(C(=O)c1ccccc1[N+](=O)[O-])c1ccccc1 (stereo not drawn),IC50,MCF7 [19],33.1 nM
same,IC50,HepG2 [20],41.8 nM
same,IC50,[12],29.4 nM
same,IC50,WI-38,422 nM
same,EC100,WI-38,130.2 nM
same,selectivity ratio,in vitro,10.1
